Tests used:
[1] = tested on: cancer cells (A549 and HepG2), normal cells (NHDF and IMR90); assay: Cellular uptake of compounds in normal and cancer cells; type: cell-based, human; conditions: 5 μM, 6 h, A549, HepG2 vs NHDF
Method: Cells were treated with 5 μM of each compound for 6 h. Fluorescence intensities were determined using SpectraMAX 13;
(§1) To analyze the cellular fluorescence levels upon compound treatment, cells were seeded in plates 1 day before treatment with the compounds. Cells were then treated with each compound for the indicated dose or time course. After the experiment, cells were washed with ice-cold PBS, trypsinized, and centrifuged. The cell pellet was re-suspended in 300 μL of PBS and then analyzed using a multiplate reader (SpectraMAX I3x). The results were normalized according to the number of cells.

[2] = tested on: HepG2 cells; assay: Confocal intracellular localization with MitoTracker; type: cell-based, human; conditions: HepG2, 5 μM, 24 hr
Method: (§2) HepG2 cells treated with each compound (5 μM, 24 hr) were co-stained with the mitochondrial marker MitoTracker (green). Boxed regions show co-localization of the test compounds and probe within the mitochondria. […] Experiments were carried out in triplicate and the data shown represent means±SD. **p<0.01. […] HepG2 cells were incubated with BNPP (100 μM) for 2 hr prior to C1 treatment. **p<0.01. […] Cleaved caspase-3 and PARP-1 levels were examined to assess apoptosis induction. C, cleaved.
Cells were seeded on glass chamber slides (Nalgene Nunc) followed by probe treatment. After 48 h, the cells were fixed with 4% formaldehyde, and blocked with 2% bovine serum albumin-PBS for 30 min. The mitochondria were stained using MitoTracker™ Green FM (Invitrogen, USA) for 30 min. Fluorescent images were obtained using a confocal laser scanning microscope (Carl Zeiss MicroImaging, Inc., Germany).

[3] = tested on: HepG2 cells; assay: WST cell viability assay; type: cell-based, human
Method: as §2
(§3) Cells were seeded in 24 well plates at 2×10^5 cells per well and were allowed to adhere for at least 24 h, growth medium was replaced with medium containing C1 or its analogues at the indicated concentrations and times, and cell viability was assessed via the WST-1 assay (Roche Diagnostics, Laval, QC, Canada). For the colony formation assay, cells were seeded in 6-well plates. After 24 h, cells were maintained in the presence of each probe or vehicle dimethyl sulfoxide (DMSO) for 10 days. Colonies were fixed with methanol for 10 min and stained with 0.05% crystal violet in 20% ethanol.

[4] = tested on: MCF7 and MCF7/Dox cells; assay: Intracellular accumulation, fluorescence assay; type: cell-based, human; conditions: up to 12 hr after treatment
Method: (§4) Fluorescence intensities were measured with SpectraMAX 13. Data represent means±SD. **p<0.01. […] Data represent means±SD. **[…]. […] Data represent the mean±SD (n=3 experimental replicates). *p<0.05, **p<0.01. […] MCF7/Dox cells were treated with C1 or C3 as indicated, and the cytosolic (C) and mitochondrial (M) fractions were subjected to immunoblot assay. COX-IV and tubulin were used as markers for the mitochondria and cytosol fractions, respectively.
Mito-tracker (green) was utilized to show the mitochondria;
as §1

[5] = tested on: MCF7 cells; assay: Colony formation assay; type: cell-based, human; conditions: 10 days
Method: as §3

[6] = tested on: MCF7/Dox xenograft tumors; assay: Independent comparative xenograft study of C1-C4; type: in vivo, mice; conditions: n=5 per group, FIG. 23C
Source text: Tumors are shown (right). […] C1 injection led to a 58% reduction in tumor growth, which was statistically greater than the reductions seen in the case of C2 (16%), C3 (9%), C4 (6%) and DMSO (0%) tested under otherwise identical conditions.

[7] = tested on: p21^Waf1 and phosphorylated PDH levels; assay: Immunoblot assay of p21Waf1 and phosphorylated PDH; type: cell-based, human
Method: as §2
(§5) Immunoblot analyses were performed using antibodies specific for phosphorylated serine 293 PDH-EI (ab92696), p21^Waf1 (sc-397), cleaved PARP (5625), cleaved caspase-3 (9664), COX-IV (4850), and Cytochrome c (4280). They were purchased from Abcam (Cambridge, UK), Santa Cruz Biotechnology (Texas, USA) or Cell Signaling Technology (Massachusetts, USA). Anti-tubulin antibodies were obtained from Sigma-Aldrich (St. Louis, USA). Briefly, cells were washed twice in ice-cold PBS and lysed in a radioimmunoprecipitation assay buffer containing 50 mM Tris/HCl (pH 7.5), 150 mM NaCl, 0.1% sodium dodecyl sulfate (SDS), 1% Triton X-100, 1% sodium deoxycholate, and protease inhibitor mixture. After sonification, the lysate was centrifuged, and the supernatant was recovered and loaded onto a 12% SDS-polyacrylamide gel for electrophoresis.

[8] = tested on: MCF7/Dox cells; assay: Cytochrome c release from mitochondria, immunoblot; type: cell-based, human
Method: as §4
as §5, with “electrophoresis. […]” for “electrophoresis.”

| SMILES | tumor cell selectivity of cellular uptake [1] | intracellular (mitochondrial) localization [2] | IC50 ([3]; HepG2 cells, WST assay, read-out: IC50 (cytotoxicity)) [µM] | cell death in cell-survival assays ([3]; compared with C3-C6) | intracellular accumulation in MCF7/Dox versus MCF7 [4] | colony-forming ability [5] | reduction in tumor growth [6] [%] | effect on p21^Waf1 and phosphorylated PDH levels [7] | cytochrome c release, cleavage of caspase-3 and PARP-1, decrease in cell viability [8] |
| --- | --- | --- | --- | --- | --- | --- | --- | --- | --- |
| C#CCC(OC(=O)N[C@H]1C[C@H](O[C@H]2C[C@](O)(C(=O)CO)Cc3c(O)c4c(c(O)c32)C(=O)c2c(OC)cccc2C4=O)O[C@@H](C)[C@H]1O)c1ccc(NC(=O)C(Cl)Cl)cc1 (stereo partly drawn) [C2] | no cellular selectivity | no detectable mitochondrial localization | 10.6 ± 1.03 | greater cell death in a dose-dependent manner | substantially lower level in MCF7/Dox than in MCF7 | showed this effect only in the case of the MCF7 cells | 16 |  |  |
| C#CCC(OC(=O)N[C@H]1C[C@H](O[C@H]2C[C@](O)(C(=O)CO)Cc3c(O)c4c(c(O)c32)C(=O)c2c(OC)cccc2C4=O)O[C@@H](C)[C@H]1O)c1ccc(NC(=O)C(C)C)cc1 (stereo partly drawn) [C4] | no cellular selectivity | no detectable mitochondrial localization |  |  |  |  | 6 |  |  |
| COc1cccc2c1C(=O)c1c(O)c3c(c(O)c1C2=O)C[C@@](O)(C(=O)CO)C[C@@H]3O[C@H]1C[C@H](NC(=O)OC(Cc2cn(CCCCCC[P+](c3ccccc3)(c3ccccc3)c3ccccc3)nn2)c2ccc(NC(=O)C(C)C)cc2)[C@H](O)[C@H](C)O1 (stereo partly drawn) [C3] | taken up specifically by cancer cells | located predominantly within the mitochondria |  |  |  |  | 9 | no effect on p21^Waf1 or PDH phosphorylation | fails to evoke these effects |

Reference: US11241501B2, “Anticancer prodrug for overcoming drug resistance” (Korea University Research and Business Foundation, priority 2018, dated 2022)
